# Reference: PMC7515950, “Physiologically based pharmacokinetic modeling to assess metabolic drug–drug interaction risks and inform the drug label for fedratinib” (Cancer Chemotherapy and Pharmacology, 2020)
# Where “and” joins values, the source holds several entries; their conditions need not be identical. Equal entries are not always repeated. Where two headings read alike, the source gives them in different places.
# How the values were obtained:
# [1] = Biliary excretion in bile-duct cannulated rats (PDM-07-10348-059); assay type: in vivo; details: iv 5 mg/kg
# Text: (§1) The biliary excretion of unchanged drug accounts for 2.3% of the total intravenous dose in bile-duct cannulated (BDC) rats.
# [2] = Human 14C mass balance and metabolic profiling (BEX12257, MEH0082); assay type: in vivo; details: for fa (fraction of absorbed dose): estimated from mass balance and metabolic profiling, BEX12257 and MEH0082; for CL renal: estimated from BEX12257, MEH0082 with CL/F of 33.3 L/h, read-out: CLR (renal clearance) (converted)
# Procedure: The first-order absorption ka value was estimated to be ~0.22 h^-1 based on compartmental modeling of mean PK data obtained from healthy subjects given single doses of 500 mg fedratinib (see Table 1 in Supplemental Material SM 2). The fa value was estimated based on data obtained from the mass balance and metabolic profiling studies conducted in healthy subjects. By combining the estimated excretion percentages of the parent compound in urine, feces, and bile, the unabsorbed dose was estimated to be ~35% and thus fraction of absorption (fa) was estimated to be ~0.65 (see Figure 2 and “Excretion Parameters” subsection).
# Following the normalization, excretion percentages of fedratinib were estimated to be ~5% and ~37% of the administered dose in urine and feces, respectively.
# [3] = system: cryopreserved human hepatocytes; test: Contribution of metabolic enzymes in cryopreserved human hepatocytes (MIH0888); assay type: in vitro ADME; details: 1 µM fedratinib
# [4] = cited from earlier work
# [5] = Clinical single-dose PK of fedratinib in healthy subjects; assay type: in vivo, human; details: corresponding to dose-normalized AUC of 30 ng·h/(mL·mg)
# Procedure: First, the developed PBPK model was verified against clinical observations in healthy subjects administered single doses of 300 mg fedratinib alone without further modifications. Second, the developed PBPK model was verified against clinical data under repeated dosing scenarios. As no repeated-dosing studies have been conducted in healthy volunteers, the model verification was conducted using the clinical PK profiles from myelofibrosis (MF) patients administered repeated doses of 300, 400, or 500 mg fedratinib once a day (QD). Third, the PBPK model of fedratinib was verified against the clinical data observed in healthy volunteers co-dosed with fedratinib (300 mg, single dose) and ketoconazole (200 mg BID).
# AUC refers to AUCinf for the single dose scenarios and AUCτ for the repeated QD dose scenarios. The number of subjects (n) = 6 in TDU12620, n = 17 in INT12894, n = 10-11 in ARD11936, and n = 100 in virtual trial simulations, respectively. All model simulations listed in the table were simulated using the default “Healthy Volunteers” and “Cancer” population files provided in Simcyp® (V17R1). The prediction error is calculated using PE = (GMprediction – GMobservation)/GMobservation ×100%, where GM refers to geometric mean. SD refers to standard deviation.
# [6] = PBPK parameter estimation in Simcyp (retrograde modeling, QGut, Peff, F, Fg, CLAdd); design: species or system human; details: for CLint,CYP2C19 / CLint,CYP2D6 / CLint,CYP3A4: retrograde modeling, healthy subjects
# Text: Using the retrograde modeling tool provided within Simcyp®, the intrinsic enzyme clearance (CLint) values were optimized by minimizing the differences between the model-predicted and clinically observed dose-normalized AUCinf (see Supplemental Material SM2—Metabolism Parameters), with the fractions of metabolism of CYP3A4 (fmCYP3A4) and additional hepatic enzymes (fmHLM,add) refined by the parameter sensitivity analysis on accumulation ratio for repeated-dose clinical studies (see Supplemental Material SM8). The renal clearance (CLR) and additional systemic clearance (CLadd) were provided as input parameters estimated from the clinical data (see Supplemental Material SM2—Excretion Parameters). The PBPK distribution parameters (including Vss, Vsac, and Q) were directly derived from the compartmental modeling of plasma PK data obtained from healthy subjects administered 500 mg fedratinib single doses, and then provided as input parameters without further modifications (see Supplemental Material SM2—Distribution Parameters).
# By default, the QGut is set to be the mean value (i.e., 6.5 L/h) in the PBPK model of fedratinib.
# As CYP3A4 is the dominant form of CYP3A in the liver, all metabolic contribution from CYP3A was assigned to CYP3A4 in this PBPK model. The default “Healthy Volunteers” population was used for the retrograde modeling. […] The Fg value required for retrograde modeling was initially set as default 1 and then adjusted to ~0.8 based on model prediction. […] The clearance values derived above for fedratinib in healthy subjects were assumed to be the same for cancer patients including myelofibrosis (MF) patients and patients with refractory solid tumors.
# as §1
# CYP2C9 = target: T1, CYP2C9 (Homo sapiens, UniProt P11712); test: CYP inhibition in human liver microsomes (MIH0887), CYP2C9; assay type: in vitro ADME; details: HLM, apparent Ki, reversible inhibition
# T1 construct: from tissue; host or cells: human liver microsomes
# Procedure: (§2) The CYP enzyme reverse inhibition and mechanism-based inhibition (MBI) parameters were estimated in the human liver microsome (HLM) incubation in vitro studies. The reported reversible inhibition parameter (i.e., apparent Ki) values for CYP2C8, CYP2C9, and CYP2D6, along with the MBI parameters (i.e., KI or Kapp and kinact) for CYP2C19 and CYP3A4, were supplied to the PBPK DDI model (see Table 2).
# CYP3A4 = target: T2, CYP3A4 (Homo sapiens, UniProt P08684); test: CYP reversible and mechanism-based inhibition in human liver microsomes (MIH0887), CYP3A4; assay type: in vitro ADME
# T2 construct: from tissue; host or cells: human liver microsomes
# Procedure: as §2
# [7] = human 14C-mass balance, over 0-192/240h
# [8] = normalized by total recovered radioactivity
# [9] = 300 mg QD, MF patients, Day 1, observation, GM
# [10] = 300 mg QD, MF patients, Day 1, observation, Mean (SD)
# [11] = 300 mg QD, MF patients, steady state, observation, GM
# [12] = 300 mg QD, MF patients, steady state, observation, Mean (SD)
# [13] = 400 mg QD, MF patients, Day 1, observation, GM
# [14] = 400 mg QD, MF patients, Day 1, observation, Mean (SD)
# [15] = 400 mg QD, MF patients, steady state, observation, GM
# [16] = 400 mg QD, MF patients, steady state, observation, Mean (SD)
# [17] = 500 mg QD, MF patients, Day 1, observation, GM
# [18] = 500 mg QD, MF patients, Day 1, observation, Mean (SD)
# [19] = 500 mg QD, MF patients, steady state, observation, GM
# [20] = 500 mg QD, MF patients, steady state, observation, Mean (SD)
# [21] = clinical observation in MF patients
# T2 sequence (P08684 2-503 limits assumed): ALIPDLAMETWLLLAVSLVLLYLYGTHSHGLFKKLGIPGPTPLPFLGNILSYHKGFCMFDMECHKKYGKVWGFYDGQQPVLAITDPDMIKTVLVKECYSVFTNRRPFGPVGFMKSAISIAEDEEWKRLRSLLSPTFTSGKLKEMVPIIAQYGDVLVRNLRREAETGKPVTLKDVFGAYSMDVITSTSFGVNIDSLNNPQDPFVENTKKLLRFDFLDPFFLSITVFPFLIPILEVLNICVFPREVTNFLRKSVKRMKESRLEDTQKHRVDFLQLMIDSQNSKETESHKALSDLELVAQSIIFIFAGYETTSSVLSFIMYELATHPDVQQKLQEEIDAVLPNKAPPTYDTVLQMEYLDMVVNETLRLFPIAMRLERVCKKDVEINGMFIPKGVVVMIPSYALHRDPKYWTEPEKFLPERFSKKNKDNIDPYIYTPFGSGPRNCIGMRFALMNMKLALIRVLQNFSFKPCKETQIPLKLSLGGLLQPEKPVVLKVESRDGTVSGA
# T1 sequence (P11712 whole entry): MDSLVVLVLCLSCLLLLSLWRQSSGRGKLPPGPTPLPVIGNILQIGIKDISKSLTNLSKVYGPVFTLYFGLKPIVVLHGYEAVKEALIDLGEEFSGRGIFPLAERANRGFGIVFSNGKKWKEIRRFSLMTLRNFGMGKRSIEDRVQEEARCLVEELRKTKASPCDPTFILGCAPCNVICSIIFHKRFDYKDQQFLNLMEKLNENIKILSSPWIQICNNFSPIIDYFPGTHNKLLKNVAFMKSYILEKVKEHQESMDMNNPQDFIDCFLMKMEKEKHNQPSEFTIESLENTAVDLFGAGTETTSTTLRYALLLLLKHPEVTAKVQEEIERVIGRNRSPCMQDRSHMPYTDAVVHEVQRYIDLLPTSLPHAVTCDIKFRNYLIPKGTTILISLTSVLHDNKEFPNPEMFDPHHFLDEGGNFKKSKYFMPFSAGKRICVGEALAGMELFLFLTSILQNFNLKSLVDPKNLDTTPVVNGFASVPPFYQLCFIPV
smiles,measurement,setting,value
Cc1cnc(Nc2ccc(OCCN3CCCC3)cc2)nc1Nc1cccc(S(=O)(=O)NC(C)(C)C)c1 [Fedratinib],"biliary excretion of unchanged drug, percent of total intravenous dose",[1],2.3%
same,unabsorbed dose,"[2]; estimated from excretion of parent in urine, feces and bile",~ 35%
same,fa (fraction of absorbed dose),[2],0.65
same,fa (fraction of absorbed dose),[2]; listed as fedratinib,0.650
same,"parent compound in feces, percent of administered dose",[2]; [7],23.3%
same,"parent compound in urine, percent of administered dose",[2]; [7],2.9%
same,blood plasma ratio,"[2]; human, blood and plasma, oral, Study BEX12257, read-out: B/P (blood/plasma concentration ratio)",0.7
same,CL renal,"[2]; human, in vivo, oral",~27.8 mL/min
same,CL renal,"[2]; human, urine, oral",27.8 mL/min
same,"excretion percentage of fedratinib in feces, normalized",[2]; [8],~ 37%
same,"excretion percentage of fedratinib in urine, normalized",[2]; [8],~ 5%
same,total percent activity of administered dose,[2]; over 0-192/240h,62.7%
same,"hepatic metabolic clearance percentage, CYP2C19",[3],17% and ~ 17%
same,"hepatic metabolic clearance percentage, CYP2D6",[3],2% and ~ 2%
same,"hepatic metabolic clearance percentage, CYP3A",[3],63% and ~ 63%
same,"metabolic contribution to hepatic clearance, other liver enzymes",[3],~ 18%
same,AUC (AUCτ),[4]; [9],7020 ng·h/mL
same,Cmax,[4]; [9],1070 ng/mL
same,AUC (AUCτ),[4]; [10],9460 (7770) ng/mL·h
same,Cmax,[4]; [10],1380 (1060) ng/mL
same,AUC (AUCτ),[4]; [11],22400 ng·h/mL
same,Cmax,[4]; [11],1530 ng/mL
same,AUC (AUCτ),[4]; [12],25300 (14100) ng/mL·h
same,Cmax,[4]; [12],1800 (1120) ng/mL
same,AUC (AUCτ),[4]; [13],9130 ng·h/mL
same,Cmax,[4]; [13],1290 ng/mL
same,AUC (AUCτ),[4]; [14],9610 (3450) ng/mL·h
same,Cmax,[4]; [14],1430 (754) ng/mL
same,AUC (AUCτ),[4]; [15],26900 ng·h/mL
same,Cmax,[4]; [15],1800 ng/mL
same,AUC (AUCτ),[4]; [16],29100 (13500) ng/mL·h
same,Cmax,[4]; [16],2020 (1250) ng/mL
same,AUC (AUCτ),[4]; [17],9980 ng·h/mL
same,Cmax,[4]; [17],1270 ng/mL
same,AUC (AUCτ),[4]; [18],11300 (6060) ng/mL·h
same,Cmax,[4]; [18],1420 (710) ng/mL
same,AUC (AUCτ),[4]; [19],38700 ng·h/mL
same,Cmax,[4]; [19],2540 ng/mL
same,AUC (AUCτ),[4]; [20],44500 (24900) ng/mL·h
same,Cmax,[4]; [20],2830 (1370) ng/mL
same,"accumulation ratio, AUC","[4]; Study ARD11936 500 mg QD, MF patients, observed",3.9
same,"accumulation ratio, AUC",[4]; [21],2.9–3.2
same,"accumulation ratio, Cmax",[4]; [21],1.4–2.0
same,CL/F,[5],33.3 L/h
same,clearance,"[6]; human, oral, read-out: CLAdd (additional systemic clearance) (converted)",~11.2 mL/min
same,biliary excretion percentage assumed in humans,"[6]; oral dose, assumed from rat data",~ 2%
same,"CLint,CYP2C19",[6],1.25 mL/min/pmol of isoform
same,"CLint,CYP2D6",[6],0.258 mL/min/pmol of isoform
same,"CLint,CYP3A4",[6],0.610 mL/min/pmol of isoform
same,"CLint,CYP2C19",[6]; listed as fedratinib,1.25 μL/min/pmol of isoform and 1.253 μL/min/pmol of isoform
same,"CLint,CYP2D6",[6]; listed as fedratinib,0.258 μL/min/pmol of isoform
same,"CLint,CYP3A4",[6]; listed as fedratinib,0.610 μL/min/pmol of isoform
same,CLpo used for retrograde calculation,[6]; updated so that predicted dose-normalized AUC agrees with observation,48 L/h
same,Ki,CYP2C9,26.1 µM
same,Ki,"CYP3A4; HLM, assuming Ki = IC50/2",9.55 µM
same,CYP3A4 KI or Kapp,"CYP3A4; HLM, mechanism-based inhibition",1.57 µM
same,CYP3A4 KI or Kapp,"CYP3A4; HLM, mechanism-based inhibition, listed as fedratinib",1.570 µM
same,kinact,"CYP3A4; human, human liver microsomes, HLM, mechanism-based inhibition",0.000717 s⁻¹
same,IC50,"CYP3A4; midazolam as substrate, absence of NADPH during pre-incubation, read-out: CYP3A IC50",19.1 µM
